Reference: patent US8158608B2, “Bioactive fraction from Zingier officinale and a process for the preparation thereof” (Council of Scientific and Industrial Research, priority 2006, dated 2012)

How the values were obtained:
[1] = Antioxidant (Aox) potency of identified phenolic acids; conditions: for Contribution towards AOX potency of GRAOX: calculated contribution of GRAOX components
Method: The identified phenolic acids were examined for their ability to inhibit proton potassium ATPase activity and their antioxidant potency was also determined.

[2] = target: Proton Potassium ATPase (H+ K+ ATPase) (Ovis aries, UniProt A0ACI6QGK8); assay: Proton potassium ATPase inhibition (PPI), inorganic phosphate release; type: biochemical, sheep; conditions: calculated contribution of GRAOX components
Method: Fresh sheep stomach was obtained from local slaughterhouse at Mysore. The mucosa of gastric fundus was cut off and the inner layer were scraped for parietal cells and homogenized in 16 mM Tris buffer (pH 7.4) containing 10% triton-x100 and centrifuged at 6000 rpm for 10 min. The supernatant (enzyme extract) was used for the assay. Protein content was determined according to Brad ford's method using BSA as standard.
Inorganic phosphate formed was measured spectrophotometrically at 400 nm. Enzyme activity was calculated as μ moles of Pi released/hr at various doses of GRAOX and GRPP. […] (FIG. 1, Table. 1)

Proton Potassium ATPase (H+ K+ ATPase), sequence (A0ACI6QGK8 entry or part of it): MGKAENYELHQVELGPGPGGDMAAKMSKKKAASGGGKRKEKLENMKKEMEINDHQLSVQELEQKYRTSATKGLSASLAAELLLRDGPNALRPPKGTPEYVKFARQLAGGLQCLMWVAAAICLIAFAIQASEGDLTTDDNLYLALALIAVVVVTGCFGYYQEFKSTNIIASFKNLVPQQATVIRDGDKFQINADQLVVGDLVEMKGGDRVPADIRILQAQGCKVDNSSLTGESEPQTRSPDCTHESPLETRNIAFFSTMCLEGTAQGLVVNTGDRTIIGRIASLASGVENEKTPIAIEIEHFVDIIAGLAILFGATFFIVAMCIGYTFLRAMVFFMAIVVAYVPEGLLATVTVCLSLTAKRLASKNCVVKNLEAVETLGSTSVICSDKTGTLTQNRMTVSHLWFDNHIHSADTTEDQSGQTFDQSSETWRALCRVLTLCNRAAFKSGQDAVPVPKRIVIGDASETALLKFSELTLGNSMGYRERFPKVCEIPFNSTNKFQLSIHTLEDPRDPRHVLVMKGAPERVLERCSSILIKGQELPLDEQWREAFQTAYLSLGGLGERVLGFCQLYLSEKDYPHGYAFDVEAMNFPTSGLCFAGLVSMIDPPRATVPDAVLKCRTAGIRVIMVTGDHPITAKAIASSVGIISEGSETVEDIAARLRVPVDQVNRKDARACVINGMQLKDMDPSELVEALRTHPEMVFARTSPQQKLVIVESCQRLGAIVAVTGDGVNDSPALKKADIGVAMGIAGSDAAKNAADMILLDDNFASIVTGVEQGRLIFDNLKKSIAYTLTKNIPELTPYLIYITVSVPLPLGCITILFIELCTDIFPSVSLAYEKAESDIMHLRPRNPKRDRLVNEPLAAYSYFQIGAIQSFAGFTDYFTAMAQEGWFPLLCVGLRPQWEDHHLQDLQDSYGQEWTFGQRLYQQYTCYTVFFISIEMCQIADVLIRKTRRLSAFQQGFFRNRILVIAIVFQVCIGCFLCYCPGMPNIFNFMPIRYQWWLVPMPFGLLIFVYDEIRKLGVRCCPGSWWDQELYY
Proton Potassium ATPase (H+ K+ ATPase), sequence (A0ACI6PNA7 entry or part of it, further chain): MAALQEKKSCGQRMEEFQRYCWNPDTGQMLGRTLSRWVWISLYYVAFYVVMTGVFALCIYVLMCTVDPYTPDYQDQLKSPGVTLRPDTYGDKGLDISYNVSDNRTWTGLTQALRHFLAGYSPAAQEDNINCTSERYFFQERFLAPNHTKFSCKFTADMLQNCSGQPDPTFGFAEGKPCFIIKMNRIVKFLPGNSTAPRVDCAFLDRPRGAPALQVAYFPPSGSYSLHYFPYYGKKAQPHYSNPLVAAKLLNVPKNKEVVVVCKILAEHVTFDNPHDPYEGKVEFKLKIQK

Row | Molecule | Contribution towards AOX potency of GRAOX [1] [%] | antioxidant potency fold higher than Cinnamic acid ([1]; ratio versus Cinnamic acid) [fold] | Contribution towards H+K+ ATPase activity of GRAOX [2] [%]
1 | Gallic acid/Tannic acid | ~92 | ~20 | ~6
2 | O=C(O)C=Cc1ccccc1 [Cinnamic acid] | ~2 |  | ~90
